Data on two compounds can be found in BindingDB's records for doi:10.1016/j.bmcl.2003.11.047 (National Chung-Hsing University, 2004).

The assay deals with Phospholipase A2 (Naja mossambica). In words: Binding affinity against phospholipase A2 of Naja mocambique mocambique.

By Ki is commonly meant the dissociation constant of the complex between target and ligand, obtained from inhibition or displacement. Higher therefore signals a looser hold on the target. With `CCCCCCCCNC(=O)Oc1cccc(OC(=O)NCCCCCCCC)c1` [Octyl-carbamic acid 3-octylcarbamoyloxy-phenyl ester], the Ki came to 4 µM.

`CCCCCCCCNC(=O)Oc1ccc(OC(=O)NCCCCCCCC)cc1` [Octyl-carbamic acid 4-octylcarbamoyloxy-phenyl ester]: affinity was put at a Ki of 15 µM.
